For test [1], the system named is GST-S6K1-T2[Thr412Glu] in HEK 293 cells. Nature of the test: S6K activity and activation loop phosphorylation in transfected HEK 293 cells. The following applies: 200 μM, 90 minutes. The class given is cell-based, human. As for the experimental part: FIG. 4—Small compounds designed to bind the HM/PIF-pocket of PDK1 can block the PDK1-dependent phosphorylation and activation of substrates that require docking to the HM/PIF-pocket of PDK1. (A) Effect of compound 1 (100 and 200 μM) on PDK1 phosphorylation of its substrate S6K1. The phosphorylation reaction was performed in vitro with [γ^32P]ATP and then separated on SDS-PAGE followed by exposure to phosphorimager. The radioactive band corresponding to phosphorylated GST-56K1-T2[Thr412Glu] (S6K[412E]) is indicated. (B) PDK1 or PDK1[Val127Leu] (PDK1[V127L]) were pre-incubated with GST-[…]N-SGK1 [Ser422Asp] […] (C) The activity of S6K was measured in vitro after glutathione sepharose purification; aliquots of purified proteins were separated on SDS-PAGE and the level of activation loop phosphorylation was visualized by immunoblotting using phospho-specific antibodies that recognize the phosphorylated activation loop, followed by stripping of the membranes and re-probing with anti-GST to verify the presence of equal amounts of protein. (D) Cells overexpressing GST-56K1-T2[Thr412Glu] were treated as in (C) but S6K activity was measured in vitro after immunoprecipitation of the GST-fusion protein with anti-GST antibodies; the level of S6K expression was analysed by western-blotting of crude extracts. […]

Test [2] deals with T1, PDK1 catalytic domain (50-360) (Homo sapiens, UniProt O15530).
T1 construct: the catalytic domain of PDK1 (50-359) produced in SF9 insect cells; His-tag (N, cleaved yes); made in house; host or cells: SF9 insect cells (baculovirus)
Nature of the test: TNP-ATP/PDK1 fluorescence, conformation of the ATP binding site. As for the experimental part:
FIG. 5—Modulation of PDK1 conformation by phosphopeptides and small compounds. Effect of P-HM-polypeptides and compound 1 on the emission fluorescence of trinitrophenyl-ATP (TNP-ATP)/PDK1. The fluorescence emission spectra from TNP-ATP were recorded in the presence or absence of P-HM-polypeptides, PIFtide and compound 1. (A) Effect of P-HM-RSK (65 μM) on the fluorescence by TNP-ATP. (B) Effect of compound 1 on the fluorescence emission from TNP-ATP. Fluorescence intensities are expressed as %. […] The effect of P-HM-PKB was identical to that by P-HM-RSK.
The activation of PDK1 by P-HM-polypeptides and small compounds is due to a change in the conformation of the enzyme. We probed the conformation of the ATP binding site in PDK1 by scanning the steady-state fluorescence of TNP-ATP/PDK1, in the presence or absence of P-HM-polypeptides, PIFtide, or small molecular weight compounds. Data were obtained in a Varian Cary Eclipse spectrofluorometer (excitation γ=479 nm; emission scanning, γ=500-600 nm; excitation slit=10 nm; emission slit=10 nm) at a rate of 200 nm/min, with 150 datapoints/100 nm scanning and 0.3 s averaging time. […] Non-phosphorylated HM-polypeptides increased the fluorescence intensity of TNP-ATP in the absence of PDK1 and were not used in the study. […]

Ends that are not written are not given here.

T1 sequence (O15530 50-359): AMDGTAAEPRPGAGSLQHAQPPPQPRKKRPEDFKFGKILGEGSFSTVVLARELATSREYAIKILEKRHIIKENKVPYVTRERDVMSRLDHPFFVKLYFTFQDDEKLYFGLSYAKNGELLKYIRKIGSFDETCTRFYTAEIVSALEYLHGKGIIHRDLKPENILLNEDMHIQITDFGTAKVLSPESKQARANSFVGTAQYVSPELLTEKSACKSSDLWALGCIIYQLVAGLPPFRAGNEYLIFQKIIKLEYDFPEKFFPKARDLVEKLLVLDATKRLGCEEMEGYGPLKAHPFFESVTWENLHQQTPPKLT

For `O=C(O)CSC(CC(=O)c1ccc(Cl)cc1)c1ccccc1` (stereo not shown) [Compound 1], in test [1], the “S6K1-T2[Thr412Glu] activity after cell treatment (in words)” value is reported as “decrease” and the “phosphorylation at the activation loop of S6K1-T2[Thr412Glu] (in words)” value was “decrease in the phosphorylation at the activation loop”.

In the case of “REPRILSEEEQEMFRDFDYIADWC [PIFtide, reference compound]”, in test [2] (40 μM TNP-ATP, 15 μM PDK1), the “effect on TNP-ATP/PDK1 fluorescence (in words)” value was “decreased the intensity”. For the same molecule, the Emax in test [2] (at 10 times the value of its Kd for PDK1, read-out: maximal effect on TNP-ATP fluorescence intensity) is 65%.

The values are drawn from patent US20110152166A1, “METHOD OF MODULATION OF PROTEIN PHOSPHORYLATION-DEPENDENT CONFORMATIONAL TRANSITIONS WITH LOW MOLECULAR WEIGHT COMPOUNDS” (priority 2006, published 2011).
